# Measurements published in article PMC5234078, “Integrating mass spectrometry with MD simulations reveals the role of lipids in Na^+/H^+ antiporters” (Nature Communications, 2017).
# Target: T1, NapA (wild-type NapA, MVV) (Thermus thermophilus, UniProt Q72IM4)
# T1 construct: gene TT_C1108; homodimer, 82,450 Da; in C8E4
# Assay: native nESI-MS and tandem MS of protein-lipid complexes; ion mobility unfolding
# Conditions: detergent C8E4, ammonium acetate pH 7.5; annular, non-specific phospholipid binding
# T1 sequence (Q72IM4 entry or part of it): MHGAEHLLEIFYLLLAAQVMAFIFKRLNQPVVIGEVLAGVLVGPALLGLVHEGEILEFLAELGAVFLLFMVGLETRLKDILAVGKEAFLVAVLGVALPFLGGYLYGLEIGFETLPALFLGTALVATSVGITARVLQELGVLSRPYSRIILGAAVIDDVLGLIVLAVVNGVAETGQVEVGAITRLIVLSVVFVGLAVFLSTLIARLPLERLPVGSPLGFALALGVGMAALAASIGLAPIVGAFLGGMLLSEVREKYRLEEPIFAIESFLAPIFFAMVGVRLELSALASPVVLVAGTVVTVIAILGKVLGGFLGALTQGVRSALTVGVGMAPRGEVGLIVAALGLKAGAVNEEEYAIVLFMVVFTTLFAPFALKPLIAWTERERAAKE
row,Structure (SMILES),native nESI-MS and tandem MS of protein-lipid complexes; ion mobility unfolding
1,"CCCCCCCC/C=C\CCCCCCCC(=O)O[C@H](COC(=O)CCCCCCCCCCCCCCC)COP(=O)(O)OCC(O)CO (some centres unmarked) [PG, 1-palmitoyl-2-oleoyl-phosphatidyl-glycerol]",Interactions with negatively charged PG lipids exhibit higher gas-phase stabilities than with zwitterionic PE
2,"CCCCCCCC/C=C\CCCCCCCC(=O)O[C@H](COC(=O)CCCCCCCCCCCCCCC)COP(=O)(O)OCCN [PE, 1-palmitoyl-2-oleoyl-glycerophospho-ethanolamine]",NapA with PE show a concentration-dependent increase in the number of lipid adducts
